Measured values: patent US20260207615A1, “FLUOROPYRIDOPYRIMIDINE AND FLUOROQUINAZOLINE DERIVATIES AND METHODS OF USE THEREOF” (Frontier Medicines Corporation, priority 2022, published 2026)

Molecular target: T1, KRAS G12C and cRAF interaction (Homo sapiens, UniProt P01116, C118S/C51S/C80L/G12C)
T1 construct: truncated version comprising amino acids 1-169
Assay: Inhibition of KRAS G12C and cRAF binding (AlphaScreen)
Assay type: biochemical
Details: KRAS G12C (Cys-light, aa 1-169) preloaded with GMPPNP, cRaf RBD (aa 50-131), 2 hours incubation
Method in brief: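 Biotin-AviTag KRAS G12C (Cys-light C51S/C80L/C118S, aa 1-169, GMPPNP-loaded; 0.5 nM final)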

T1 sequence (P01116 1-169 isoform P01116-2 G12C/C51S/C80L/C118S): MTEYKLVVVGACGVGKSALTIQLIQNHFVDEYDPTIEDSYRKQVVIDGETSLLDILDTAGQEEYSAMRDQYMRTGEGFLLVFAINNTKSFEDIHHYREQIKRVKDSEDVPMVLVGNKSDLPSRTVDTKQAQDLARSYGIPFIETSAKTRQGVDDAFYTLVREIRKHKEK

Structure (SMILES) | IC50
Cc1cc(/C=C/C(=O)N2CCN(c3nc(OC[C@@]45CCCN4C[C@H](F)C5)nc4c(F)c(-c5cccc(Cl)c5C5CC5)ncc34)CC23COC3)nc(C)n1 [Example 28, (E)-1-(8-(7-(3-chloro-2-cyclopropylphenyl)-8-fluoro-2-(((2R,7aS)-2-fluorotetrahydro-1H-pyrrolizin-7a(5H)-yl)methoxy)pyrido[4,3-d]pyrimidin-4-yl)-2-oxa-5,8-diazaspiro[3.5]nonan-5-yl)-3-(2,6-dimethylpyrimidin-4-yl) prop-2-en-1-one] | ≥ 0.5 µM
C=CC(=O)N1CCN(c2nc(OC[C@@]34CCCN3C[C@H](F)C4)nc3c(F)c(-c4cccc5ccc(F)c(F)c45)ncc23)C[C@]12CCOC2 [Example 81] | ≥ 0.5 µM
C=C(F)C(=O)N1CCN(c2nc(OC[C@@]34CCCN3C[C@H](F)C4)nc3c(F)c(-c4cc(O)cc(Cl)c4C4CC4)ncc23)CC12COC2 [Example 79] | ≥ 0.5 µM
Cc1nccc(/C=C/C(=O)N2CCN(c3nc(OCC45CCCN4CCC5)nc4c(F)c(-c5cccc6ccc(F)c(F)c56)ncc34)CC23COC3)n1 [Example 10, (E)-1-(8-(7-(7,8-difluoronaphthalen-1-yl)-8-fluoro-2-((tetrahydro-1H-pyrrolizin-7a(5H)-yl)methoxy)pyrido[4,3-d]pyrimidin-4-yl)-2-oxa-5,8-diazaspiro[3.5]nonan-5-yl)-3-(2-methylpyrimidin-4-yl) prop-2-en-1-one] | 0.1 to 0.5 µM
Cc1nccc(/C=C/C(=O)N2CCN(c3nc(OCC45CCCN4CCC5)nc4c(F)c(-c5cccc6cccc(Cl)c56)ncc34)CC23COC3)n1 [Example 7, (E)-1-(8-(7-(8-chloronaphthalen-1-yl)-8-fluoro-2-((tetrahydro-1H-pyrrolizin-7a(5H)-yl)methoxy)pyrido[4,3-d]pyrimidin-4-yl)-2-oxa-5,8-diazaspiro[3.5]nonan-5-yl)-3-(2-methylpyrimidin-4-yl) prop-2-en-1-one] | 0.1 to 0.5 µM
O=C(/C=C/CN1[C@@H]2CC[C@H]1COC2)N1CCN(c2nc(OC[C@@]34CCCN3C[C@H](F)C4)nc3c(F)c(-c4ccccc4C(F)F)ncc23)CC12COC2 [Example 26, (E)-4-((1R,5S)-3-oxa-8-azabicyclo[3.2.1]octan-8-yl)-1-(8-(7-(2-(difluoromethyl)phenyl)-8-fluoro-2-(((2R,7aS)-2-fluorotetrahydro-1H-pyrrolizin-7a(5H)-yl)methoxy)pyrido[4,3-d]pyrimidin-4-yl)-2-oxa-5,8-diazaspiro[3.5]nonan-5-yl) but-2-en-1-one] | 0.1 to 0.5 µM
C=CC(=O)N1CCN(c2nc(OC[C@@H]3CCCN3C)nc3c(F)c(-c4cccc5cccc(Cl)c45)ncc23)CC12CCOC2 (stereo partly shown) [Example 83] | ≥ 0.5 µM
C=CC(=O)N1[C@@H](C)CN(c2nc(OC[C@@]34CCCN3C[C@H](F)C4)nc3c(F)c(-c4cccc5ccc(F)c(F)c45)ncc23)CC12COC2 [Example 70] | ≥ 0.5 µM

The next lines start with the values.

IC50 | Structure (SMILES)
0.01 to 0.1 µM | C#Cc1c(F)ccc2cccc(-c3ncc4c(N5CCN(C(=O)/C=C/CN6CC[C@@H](OC)C6)C6(COC6)C5)nc(OC[C@@]56CCCN5C[C@H](F)C6)nc4c3F)c12 [Example 43, (E)-1-(8-(7-(8-ethynyl-7-fluoronaphthalen-1-yl)-8-fluoro-2-(((2R,7aS)-2-fluorotetrahydro-1H-pyrrolizin-7a(5H)-yl)methoxy)pyrido[4,3-d]pyrimidin-4-yl)-2-oxa-5,8-diazaspiro[3.5]nonan-5-yl)-4-((R)-3-methoxypyrrolidin-1-yl) but-2-en-1-one]
0.01 to 0.1 µM | C=CC(=O)N1CCN(c2nc(OC[C@@]34CCCN3C[C@H](F)C4)nc3c(F)c(-c4cccc(Cl)c4C4CC4)ncc23)CC12COC2 [Example 38, 1-(8-(7-(3-chloro-2-cyclopropylphenyl)-8-fluoro-2-(((2R,7aS)-2-fluorotetrahydro-1H-pyrrolizin-7a(5H)-yl)methoxy)pyrido[4,3-d]pyrimidin-4-yl)-2-oxa-5,8-diazaspiro[3.5]nonan-5-yl) prop-2-en-1-one]
0.01 to 0.1 µM | O=C(/C=C/CN1CC2CC(C1)O2)N1CCN(c2nc(OC[C@@]34CCCN3C[C@H](F)C4)nc3c(F)c(-c4cccc5cccc(Cl)c45)ncc23)CC12COC2 [Example 14, (E)-4-(6-oxa-3-azabicyclo[3.1.1]heptan-3-yl)-1-(8-(7-(8-chloronaphthalen-1-yl)-8-fluoro-2-(((2R,7aS)-2-fluorotetrahydro-1H-pyrrolizin-7a(5H)-yl)methoxy)pyrido[4,3-d]pyrimidin-4-yl)-2-oxa-5,8-diazaspiro[3.5]nonan-5-yl) but-2-en-1-one]
< 0.01 µM | O=C(/C=C/CN1C[C@H]2C[C@@H]1CO2)N1CCN(c2nc(OC[C@@]34CCCN3C[C@H](F)C4)nc3c(F)c(-c4cccc5ccc(F)c(F)c45)ncc23)CC12COC2 [Example 19, (E)-4-((1R,4R)-2-oxa-5-azabicyclo[2.2.1]heptan-5-yl)-1-(8-(7-(7,8-difluoronaphthalen-1-yl)-8-fluoro-2-(((2R,7aS)-2-fluorotetrahydro-1H-pyrrolizin-7a(5H)-yl)methoxy)pyrido[4,3-d]pyrimidin-4-yl)-2-oxa-5,8-diazaspiro[3.5]nonan-5-yl) but-2-en-1-one]
0.01 to 0.1 µM | C=CC(=O)N1CCN(c2nc(OC[C@@]34CCCN3C[C@H](F)C4)nc3c(F)c(-c4cccc5ccc(F)c(Cl)c45)ncc23)CC12COC2 [Example 33, 1-(8-(7-(8-chloro-7-fluoronaphthalen-1-yl)-8-fluoro-2-(((2R,7aS)-2-fluorotetrahydro-1H-pyrrolizin-7a(5H)-yl)methoxy)pyrido[4,3-d]pyrimidin-4-yl)-2-oxa-5,8-diazaspiro[3.5]nonan-5-yl) prop-2-en-1-one]
0.01 to 0.1 µM | O=C(/C=C/CN1CC2CC(C1)O2)N1CCN(c2nc(OC[C@@]34CCCN3C[C@H](F)C4)nc3c(F)c(-c4cccc(Cl)c4C(F)(F)F)ncc23)CC12COC2 [Example 77]
0.01 to 0.1 µM | Cc1cc(/C=C/C(=O)N2CCN(c3nc(OC[C@@]45CCCN4C[C@H](F)C5)nc4c(F)c(-c5cccc6ccc(F)c(Cl)c56)ncc34)CC23COC3)nc(C)n1 [Example 27, (E)-1-(8-(7-(8-chloro-7-fluoronaphthalen-1-yl)-8-fluoro-2-(((2R,7aS)-2-fluorotetrahydro-1H-pyrrolizin-7a(5H)-yl)methoxy)pyrido[4,3-d]pyrimidin-4-yl)-2-oxa-5,8-diazaspiro[3.5]nonan-5-yl)-3-(2,6-dimethylpyrimidin-4-yl) prop-2-en-1-one]
0.01 to 0.1 µM | Cc1nccc(/C=C/C(=O)N2CCN(c3nc(OC[C@@]45CCCN4C[C@H](F)C5)nc4c(F)c(-c5cccc6ccc(F)c(Cl)c56)ncc34)CC23COC3)n1 [Example 6, (E)-1-(8-(7-(8-chloro-7-fluoronaphthalen-1-yl)-8-fluoro-2-(((2R,7aS)-2-fluorotetrahydro-1H-pyrrolizin-7a(5H)-yl)methoxy)pyrido[4,3-d]pyrimidin-4-yl)-2-oxa-5,8-diazaspiro[3.5]nonan-5-yl)-3-(2-methylpyrimidin-4-yl) prop-2-en-1-one]
